In brackets after ≈: the same amount, converted by molar mass. Read-outs that look alike come from different tables or passages of the source. Each block holds one compound with its values, some of them ahead of it.
Columns and labels:
[1] = comparison compound of Kai T. et al., cited from earlier work
[2] = Solubility data for Compound 1 and the Antifungal; assay type: physicochemical
[3] = molecular target: Factor Xa (Homo sapiens, UniProt P00742); assay: Factor Xa inhibitory activity versus thrombin; assay type: biochemical; conditions: at concentrations which do not inhibit, or inhibit to a lesser extent
[4] = Solubility Data for Compound 2; assay type: physicochemical

Chain of Factor Xa (P00742 235-488 limits assumed): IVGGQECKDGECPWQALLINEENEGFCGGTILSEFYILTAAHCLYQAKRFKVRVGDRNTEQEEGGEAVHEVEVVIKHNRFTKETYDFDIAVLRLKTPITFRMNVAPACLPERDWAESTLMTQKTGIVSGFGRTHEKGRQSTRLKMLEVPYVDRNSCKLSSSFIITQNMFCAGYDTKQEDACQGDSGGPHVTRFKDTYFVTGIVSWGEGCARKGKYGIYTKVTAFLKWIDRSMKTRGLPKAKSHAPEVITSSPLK
Chain of Factor Xa (P00742 41-179 partner limits assumed): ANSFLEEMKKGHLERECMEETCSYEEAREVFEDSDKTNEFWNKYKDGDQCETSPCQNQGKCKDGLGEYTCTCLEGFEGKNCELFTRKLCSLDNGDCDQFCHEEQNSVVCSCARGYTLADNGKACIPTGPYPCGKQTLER

SMILES: CC(C)(Sc1ccc(-n2cncn2)nn1)C(O)(Cn1cncn1)c1ccc(F)cc1F (single isomer, unassigned; (+)) [Antifungal, (+)-2-(2,4-difluorophenyl)-3-methyl-1-(1H-1,2,4-triazol-1-yl)-3-[6-(1H-1,2,4-triazol-1-yl)pyridazin-3-ylthio]butan-2-ol]
solubility ([1]; Water): 1.2 µg/mL (≈ 2.7 µM) | solubility ([1]; pH1.2): 3.6 µg/mL (≈ 8.1 µM) | solubility ([1]; pH6.8): 1.2 µg/mL (≈ 2.7 µM)

solubility in the duodenum, ileum and colon ([2]; main sites of adsorption): low solubility | solubility ([2]; water): < 5 µg/mL
SMILES: O=C(c1ccc(-c2ccncc2)cc1)N1CCN(S(=O)(=O)c2ccc3cc(Cl)ccc3c2)CC1 [Compound 1, 1-(6-chloronaphth-2-ylsulfonyl)-4-[4-(4-pyridyl)benzoyl]piperazine]
solubility at the acidic pH of the stomach ([2]; stomach pH): soluble within the acidic pH of the stomach | Factor Xa inhibitory activity relative to thrombin inhibition [3]: possesses Factor Xa inhibitory activity at concentrations which do not inhibit, or which inhibit to a lesser extent, the enzyme thrombin

solubility ([4]; 0.1M hydrochloric acid, pH 1.4, simulated gastric fluid): 585 µg/mL (≈ 1220 µM) | solubility ([4]; 0.9% saline, pH 2.5, saline or isotonic): 227 µg/mL (≈ 472 µM) | solubility ([4]; aqueous buffer, pH 3 citrate buffer, pH 2.9): 193 µg/mL (≈ 401 µM) | solubility ([4]; aqueous buffer, pH 5 citrate buffer, pH 5.0): 3 µg/mL (≈ 6.24 µM) | solubility ([4]; aqueous buffer, pH 7 phosphate buffer, pH 7.1): < 2 µg/mL | solubility ([4]; water, pH 2.6, water): 301 µg/mL (≈ 626 µM)
SMILES: O=C(c1ccc(-c2ccncc2)cc1)N1CCN(S(=O)(=O)c2cc3cc(Cl)ccc3[nH]2)CC1 [Compound 2, 1-(5-chloroindol-2-ylsulfonyl)-4-[4-(4-pyridyl)benzoyl]piperazine]
Stability of sample in solubility test ([4]; 0.1M sodium hydroxide, pH 12.7): NR* = no result, sample shows evidence of degradation.

Source: patent publication US20040138231A1, “Pharmaceutical composition which comprise a solid dispersion of a hydroxypropyl-methylcellulose phthalate polymer” (priority 2001, published 2004)
